Laboratory results published in patent US6461997B1, “Triazole sulfones having herbicidal activity” (Monsanto Technology LLC, priority 1999, dated 2002).

How the values were obtained:
[1] = system: CHEAL (common lambsquarters); assay: Pre-emergence herbicidal activity, warm season; format: in vivo, Chenopodium album; details: GR80 = lowest tested rate (300, 100, 30, 10 g/ha) with 80% or greater inhibition; approx. 14 days after treating; 30/21° C.
Procedure, shortened: (§1)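 GR80 values derive from percent inhibition relative to untreated plants, read roughly 14 days after sowing and pre-emergence soil-surface treatment (compound in 50:50 acetone/water; rates typically 10, 30, 100, 300 g/ha). Warm-season weeds grew at 30/21° C day/night, cool-season ones at 18/13° C; an asterisk marks activity without reaching 80% at the highest rate.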

ECHCG (barnyardgrass) = assay: Pre-emergence herbicidal activity, warm season; format: in vivo, Echinochloa crus-galli; details: GR80 = lowest tested rate (300, 100, 30, 10 g/ha) with 80% or greater inhibition; approx. 14 days after treating; 30/21° C.
Procedure, shortened: (§2)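 Activity is expressed as the rate giving 80% inhibition, with 300, 100, 30 and 10 g/ha typically tested. An asterisk marks activity short of 80% at the top rate. Warm-season grasses were held at 30/21 °C; cool-season blackgrass and wild buckwheat at 18/13 °C; scoring at about 14 days.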

[2] = system: SORHA (johnsongrass (seedling)); assay: Pre-emergence herbicidal activity, warm season; format: in vivo, Sorghum halepense; details: GR80 = lowest tested rate (300, 100, 30, 10 g/ha) with 80% or greater inhibition; approx. 14 days after treating; 30/21° C.
Procedure, shortened: as §2

SASKR (russian thistle) = assay: Pre-emergence herbicidal activity, cool season; format: in vivo, Salsola kali; details: lowest tested rate with 80% or greater inhibition; rates 300, 100, 30, 10 g/ha; about 14 days
Procedure, shortened: as §1

SETVI (green foxtail) = assay: Pre-emergence herbicidal activity, cool season; format: in vivo, Setaria viridis; details: GR80 = lowest tested rate (300, 100, 30, 10 g/ha) with 80% or greater inhibition; approx. 14 days after treating; 18/13° C.
Procedure, shortened: as §1

SOLNI (black nightshade) = assay: Pre-plant incorporated (PPI) herbicidal activity, warm season; format: in vivo, Solanum nigrum; details: for Percent inhibition SOLNI / inhibition at 10 g/ha / inhibition at 30 g/ha / inhibition at 100 g/ha / inhibition at 300 g/ha / inhibition at 900 g/ha: PPI application; for PPI activity (GR80) SOLNI: pre-plant incorporated, GR80 = lowest tested rate with 80% or greater inhibition, approx. 14 days after treating, 30/21° C.; for inhibition at 10 g/ha / inhibition at 30 g/ha / inhibition at 100 g/ha / inhibition at 300 g/ha / inhibition at 900 g/ha: Solanum nigrum, read-out: Percent inhibition SOLNI
Method: (§3) In another set of tests, the pre-plant incorporated (PPI) activity of compounds of this invention was evaluated on the same species as for the pre-emergence tests described above. In the PPI tests the following procedure, designed to simulate PPI application, was used.
(§4) A pre-prepared topsoil mixture (described above) was placed in a pot and compacted to a depth of 1.0 to 1.25 cm from the top of the pot. Seeds of each of several monocotyledonous and dicotyledonous annual plant species were placed on top of the soil. A sufficient quantity of soil to cover the seeds and level fill the pot was weighed into an open container. A known amount of the test compound was dissolved or suspended in an organic solvent and applied by spraying to this cover soil. The cover soil was thoroughly mixed to distribute the test compound throughout the cover soil, and was then applied as a cover layer over the seeds. Untreated soil was used as a cover layer for control pots. After treatment the plants were placed in a greenhouse where they received 0.64 cm of overhead irrigation. All subsequent watering consisted of a light overhead mist and/or subirrigation as needed for germination and growth. Tables 9 and 10 below relate to warm season plant species which were placed after pre-emergence treatment in a greenhouse with a 30/21° C. day/night temperature regime. Tables 11 and 12 below relates to cool season plant species placed after pre-emergence treatment in a greenhouse or growth chamber with an 18/13° C. day/night temperature regime. Only the compounds of Examples 1, 6, 8, 11, 13 and 15-20 were included in PPI tests.
(§5) Approximately 14 days after planting and treating, the plants were observed and herbicidal efficacy recorded as percent inhibition by comparison with untreated plants.

DATST (jimsonweed) = assay: as above; format: in vivo, Datura stramonium; details: for Percent inhibition DATST / inhibition at 10 g/ha / inhibition at 30 g/ha / inhibition at 100 g/ha / inhibition at 300 g/ha / inhibition at 900 g/ha: PPI application; for PPI activity (GR80) DATST: pre-plant incorporated, GR80 = lowest tested rate with 80% or greater inhibition, approx. 14 days after treating, 30/21° C.; for inhibition at 10 g/ha / inhibition at 30 g/ha / inhibition at 100 g/ha / inhibition at 300 g/ha / inhibition at 900 g/ha: Datura stramonium, read-out: Percent inhibition DATST
Method: as §3, §4, §5

LOLMG (annual ryegrass) = assay: Post-emergence herbicidal activity, cool season; format: in vivo, Lolium multiflorum; details: abraded plants sprayed at 300, 100, 30 and 10 g/ha; about 14 days after treatment
Procedure, shortened: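 Post-emergence foliar spray; plants abraded (garnet 200w, ~850 kPa sandblast) before application. Rates 300/100/30/10 g/ha in 50:50 acetone:water, 3,100 l/ha, 511 kPa. Greenhouse 18/13° C. day/night; % inhibition vs abraded unsprayed controls at ~14 days after treatment, GR80 derived.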

SMILES	Pre-emergence activity (GR80) CHEAL [1]	Pre-emergence activity (GR80) ECHCG (ECHCG (barnyardgrass))	Pre-emergence activity (GR80) SORHA [2]	Pre-emergence activity GR80, SASKR (SASKR (russian thistle))	Pre-emergence activity (GR80) SETVI (SETVI (green foxtail))	Percent inhibition SOLNI (SOLNI (black nightshade); 10 g/ha)	Percent inhibition SOLNI (SOLNI (black nightshade); 30 g/ha)	PPI activity (GR80) SOLNI (SOLNI (black nightshade))	PPI activity (GR80) DATST (DATST (jimsonweed))	Post-emergence activity GR80, LOLMG (LOLMG (annual ryegrass))	inhibition at 10 g/ha (SOLNI (black nightshade); 10 g/ha)	inhibition at 30 g/ha (SOLNI (black nightshade); 30 g/ha)	inhibition at 100 g/ha (SOLNI (black nightshade); 100 g/ha)	inhibition at 300 g/ha (SOLNI (black nightshade); 300 g/ha)	inhibition at 900 g/ha (SOLNI (black nightshade); 900 g/ha)	inhibition at 10 g/ha (DATST (jimsonweed); 10 g/ha)	inhibition at 30 g/ha (DATST (jimsonweed); 30 g/ha)	inhibition at 100 g/ha (DATST (jimsonweed); 100 g/ha)	inhibition at 300 g/ha (DATST (jimsonweed); 300 g/ha)	inhibition at 900 g/ha (DATST (jimsonweed); 900 g/ha)	further results
CCN(CC)C(=O)n1cnc(S(=O)(=O)C(F)(F)SCC(=O)OC)n1 [Example 11]	300 g/ha	* (activity observed, at least at highest rate, but <80% inhibition)	300 g/ha	300 g/ha	300 g/ha	0%	0%	300 g/ha	100 g/ha	[empty]	–	–	–	–	–	–	–	–	–	–	Percent inhibition SOLNI (SOLNI (black nightshade); 100 g/ha): 30%; Percent inhibition SOLNI (SOLNI (black nightshade); 300 g/ha): 50%; Percent inhibition SOLNI (SOLNI (black nightshade); 900 g/ha): 100%; Percent inhibition DATST (DATST (jimsonweed); 10 g/ha): 0%; Percent inhibition DATST (DATST (jimsonweed); 30 g/ha): 0%; Percent inhibition DATST (DATST (jimsonweed); 100 g/ha): 20%; Percent inhibition DATST (DATST (jimsonweed); 300 g/ha): 20%; Percent inhibition DATST (DATST (jimsonweed); 900 g/ha): 80%
C=CCC(F)(F)S(=O)(=O)c1ncn(C(=O)N(CC)CC)n1 [Example 17, 1-(N,N-diethylcarbamoyl)-3-[(1,1-difluoro-3-butenyl)sulfonyl]-1,2,4-triazole]	100 g/ha	100 g/ha	100 g/ha	100 g/ha	100 g/ha	–	–	30 g/ha	300 g/ha	[empty]	0%	0%	80%	70%	100%	0%	0%	30%	60%	99%	–
C=C(C)CC(F)(F)S(=O)(=O)c1ncn(C(=O)N(CC)CC)n1 [Example 18]	300 g/ha	100 g/ha	100 g/ha	300 g/ha	30 g/ha	–	–	300 g/ha	300 g/ha	[empty]	0%	0%	20%	99%	90%	0%	0%	0%	60%	100%	–
C=C(Br)CC(F)(F)S(=O)(=O)c1ncn(C(=O)N(CC)CC)n1 [Example 19]	100 g/ha	300 g/ha	100 g/ha	100 g/ha	100 g/ha	–	–	100 g/ha	300 g/ha	[empty]	0%	0%	0%	40%	90%	0%	0%	0%	90%	99%	–
C=C(CC(F)(F)S(=O)(=O)c1ncn(C(=O)N(CC)CC)n1)C[Si](C)(C)C [Example 20]	300 g/ha	300 g/ha	300 g/ha	[empty]	100 g/ha	0%	0%	100 g/ha	300 g/ha	[empty]	–	–	–	–	–	–	–	–	–	–	Percent inhibition SOLNI (SOLNI (black nightshade); 100 g/ha): 0%; Percent inhibition SOLNI (SOLNI (black nightshade); 300 g/ha): 30%; Percent inhibition SOLNI (SOLNI (black nightshade); 900 g/ha): 100%; Percent inhibition DATST (DATST (jimsonweed); 10 g/ha): 0%; Percent inhibition DATST (DATST (jimsonweed); 30 g/ha): 0%; Percent inhibition DATST (DATST (jimsonweed); 100 g/ha): 0%; Percent inhibition DATST (DATST (jimsonweed); 300 g/ha): 20%; Percent inhibition DATST (DATST (jimsonweed); 900 g/ha): 60%
